Test results: patent US20150105252A1, “SUBSTITUTED PYRAZOLES AS HERBICIDES” (E I DU PONT DE NEMOURS AND COMPANY, priority 2013, published 2015)

Assays:
barnyardgrass [1] = assay: Test A preemergence; assay type: in vivo, Echinochloa crus-galli; settings: preemergence; for Barnyardgrass plant response rating (0 to 100 scale, 0 is no effect, 100 is complete control): visual injury approx. 10 days after treatment
Summary of the method: (§1)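 After sowing in a sand–loam mix, pots received compound preemergence by directed soil spray, or postemergence once plants reached the one- to two-leaf stage (2–10 cm). Formulation contained surfactant in a non-phytotoxic solvent. Injury was scored visually after ~10 greenhouse days, 0–100 scale.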

pigweed [2] = assay: Test A preemergence; assay type: in vivo, Amaranthus retroflexus; settings: preemergence; for Pigweed plant response rating (0 to 100 scale): 125 g ai/ha, visual injury approx. 10 days after treatment; for Pigweed plant response rating: 500 g ai/ha, visual injury after approx. 10 days, 0 to 100 scale (0 no effect, 100 complete control)
Summary of the method: as §1

barnyardgrass [3] = assay: Test A postemergence; assay type: in vivo, Echinochloa crus-galli
Summary of the method: as §1

foxtail, giant = assay: Test A postemergence; assay type: in vivo, Setaria faberii
Summary of the method: as §1

velvetleaf = assay: Test A postemergence; assay type: in vivo, Abutilon theophrasti
Summary of the method: as §1

corn = assay: Test A postemergence; assay type: in vivo, Zea mays
Summary of the method: as §1

rice = assay: Test B flood; assay type: in vivo, Oryza sativa; settings: 250 g ai/ha, visual rating on 0 to 100 scale (0 no effect, 100 complete control), 13 to 15 days
Summary of the method: (§2)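 Two-leaf-stage plants, pots flooded (3 cm above soil) and treated through the water, which stayed at that depth. After 13–15 days in greenhouse conditions, visual assessment versus controls: 0 is no effect, 100 complete control, dash means no result.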

barnyardgrass [4] = assay: Test B flood; assay type: in vivo, Echinochloa crus-galli; settings: 250 g ai/ha, visual rating on 0 to 100 scale (0 no effect, 100 complete control), 13 to 15 days
Summary of the method: as §2

blackgrass = assay: Test C preemergence; assay type: in vivo, Alopecurus myosuroides; settings: preemergence; for Plant response rating, Blackgrass: 125 g ai/ha, scale 0 to 100, 0 = no effect, 100 = complete control
Summary of the method: (§3)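 Visual control ratings on a 0–100 scale (100 = complete control) made against untreated controls after 13 to 15 days in greenhouse. Compounds applied in surfactant-containing solvent mixture, either preemergence to loam/sand-sown seeds or postemergence to 1- to 4-leaf plants (2–18 cm) in peat medium.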

ryegrass, Italian = assay: Test C preemergence; assay type: in vivo, Lolium multiflorum; settings: preemergence; for Plant response rating, Ryegrass, Italian: 125 g ai/ha, scale 0 to 100, 0 = no effect, 100 = complete control
Summary of the method: as §3

crabgrass, large = assay: Test C preemergence; assay type: in vivo, Digitaria sanguinalis; settings: preemergence; for Plant response rating, Crabgrass, Large: 125 g ai/ha, scale 0 to 100, 0 = no effect, 100 = complete control
Summary of the method: as §3

johnsongrass = assay: Test C preemergence; assay type: in vivo, Sorghum halepense; settings: preemergence; for Plant response rating, Johnsongrass: 125 g ai/ha, scale 0 to 100, 0 = no effect, 100 = complete control
Summary of the method: as §3

morningglory = assay: Test C preemergence; assay type: in vivo, Ipomoea coccinea; settings: preemergence; for Plant response rating, Morningglory: 125 g ai/ha, scale 0 to 100, 0 = no effect, 100 = complete control
Summary of the method: as §3

pigweed [5] = assay: Test C preemergence; assay type: in vivo, Amaranthus retroflexus; settings: preemergence; for Plant response rating, Pigweed: 125 g ai/ha, scale 0 to 100, 0 = no effect, 100 = complete control
Summary of the method: as §3

[6] = 500 g ai/ha, visual injury after approx. 10 days, 0 to 100 scale (0 no effect, 100 complete control)
[7] = Postemergence, 500 g ai/ha, 0 to 100 scale (0 no effect, 100 complete control)
[8] = postemergence, 125 g ai/ha, about 10 days, visual rating on 0 to 100 scale (0 no effect, 100 complete control)
[9] = 31 g ai/ha, visual rating, scale 0 to 100 (0 no effect, 100 complete control), 13 to 15 days
[10] = 62 g ai/ha, scale 0 to 100 (0 no effect, 100 complete control), 13 to 15 days
[11] = 250 g ai/ha, scale 0 to 100, 0 is no effect, 100 is complete control

SMILES	Barnyardgrass plant response rating (barnyardgrass [1]; [6])	Pigweed plant response rating (0 to 100 scale) (pigweed [2])	Pigweed plant response rating (pigweed [2])	Barnyardgrass plant response rating (barnyardgrass [3]; [7])	Barnyardgrass plant response rating (barnyardgrass [3]; [8])	Foxtail, Giant plant response rating (foxtail, giant; [7])	Foxtail, Giant plant response rating (foxtail, giant; [8])	Velvetleaf plant response rating (velvetleaf; [7])	Corn plant response rating (corn; [7])	Corn plant response rating (corn; [8])	Plant response rating, Rice (rice)	Plant response rating, Barnyardgrass (barnyardgrass [4])	Blackgrass plant response rating (blackgrass; [9])	Blackgrass plant response rating (blackgrass; [10])	Plant response rating, Blackgrass (blackgrass; 13 to 15 days)	Blackgrass plant response rating (blackgrass; [11])	Ryegrass, Italian plant response rating (ryegrass, Italian; [9])	Ryegrass, Italian plant response rating (ryegrass, Italian; [10])	Plant response rating, Ryegrass, Italian (ryegrass, Italian; 13 to 15 days)	Ryegrass, Italian plant response rating (ryegrass, Italian; [11])	also measured
CCCNC(=O)c1cc(CCCl)n(Cc2ccnc(C(F)(F)F)c2)n1 [Compound 145]	100	100	100	90	60	90	90	100	90	60	25	45	70	85	90	90	5	45	85	90	Barnyardgrass plant response rating (barnyardgrass [1]; 125 g ai/ha, visual injury, 0 to 100 scale, approx. 10 days): 90; Velvetleaf plant response rating (velvetleaf; [8]): 70; Crabgrass, Large plant response rating (crabgrass, large; [9]): 100; Plant response rating, Crabgrass, Large (crabgrass, large; 13 to 15 days): 100; Crabgrass, Large plant response rating (crabgrass, large; [11]): 100; Johnsongrass plant response rating (johnsongrass; [9]): 55; Plant response rating, Johnsongrass (johnsongrass; 13 to 15 days): 98; Johnsongrass plant response rating (johnsongrass; [11]): 98; Morningglory plant response rating (morningglory; [9]): 80; Morningglory plant response rating (morningglory; [10]): 100; Plant response rating, Morningglory (morningglory; 13 to 15 days): 100; Morningglory plant response rating (morningglory; [11]): 100; Pigweed plant response rating (pigweed [5]; [9]): 100; Pigweed plant response rating (pigweed [5]; [10]): 100; Plant response rating, Pigweed (pigweed [5]; 13 to 15 days): 100; Pigweed plant response rating (pigweed [5]; [11]): 100
CCNC(=O)c1cc(CCCl)n(Cc2ccnc(C(F)(F)F)c2)n1 [Compound 179]	100	100	100	90	70	90	90	100	90	50	0	25	5	40	90	95	5	80	90	90	Barnyardgrass plant response rating (0 to 100 scale, 0 is no effect, 100 is complete control) (barnyardgrass [1]; 125 g ai/ha): 100; Velvetleaf plant response rating (velvetleaf; [8]): 70; Crabgrass, Large plant response rating (crabgrass, large; [9]): 100; Crabgrass, Large plant response rating (crabgrass, large; [10]): 100; Plant response rating, Crabgrass, Large (crabgrass, large; 13 to 15 days): 100; Crabgrass, Large plant response rating (crabgrass, large; [11]): 100; Johnsongrass plant response rating (johnsongrass; [9]): 10; Johnsongrass plant response rating (johnsongrass; [10]): 10; Plant response rating, Johnsongrass (johnsongrass; 13 to 15 days): 75; Johnsongrass plant response rating (johnsongrass; [11]): 98; Morningglory plant response rating (morningglory; [9]): 85; Morningglory plant response rating (morningglory; [10]): 95; Plant response rating, Morningglory (morningglory; 13 to 15 days): 100; Morningglory plant response rating (morningglory; [11]): 100; Pigweed plant response rating (pigweed [5]; [9]): 100; Pigweed plant response rating (pigweed [5]; [10]): 100; Plant response rating, Pigweed (pigweed [5]; 13 to 15 days): 100; Pigweed plant response rating (pigweed [5]; [11]): 98
CCCc1cc(C(=O)NOCC)nn1Cc1ccnc(C(F)(F)F)c1 [Compound 185]	100	0	0	90	80	90	80	100	90	0	10	20	5	10	90	80	0	30	90	90	Barnyardgrass plant response rating (0 to 100 scale, 0 is no effect, 100 is complete control) (barnyardgrass [1]; 125 g ai/ha): 80; Velvetleaf plant response rating (velvetleaf; Postemergence, 125 g ai/ha, 0 to 100 scale, 0 no effect, 100 complete control): 10; Crabgrass, Large plant response rating (crabgrass, large; [9]): 80; Crabgrass, Large plant response rating (crabgrass, large; [10]): 100; Plant response rating, Crabgrass, Large (crabgrass, large; 13 to 15 days): 100; Crabgrass, Large plant response rating (crabgrass, large; [11]): 100; Johnsongrass plant response rating (johnsongrass; [9]): 5; Johnsongrass plant response rating (johnsongrass; [10]): 10; Plant response rating, Johnsongrass (johnsongrass; 13 to 15 days): 20; Johnsongrass plant response rating (johnsongrass; [11]): 60; Morningglory plant response rating (morningglory; [9]): 15; Morningglory plant response rating (morningglory; [10]): 75; Plant response rating, Morningglory (morningglory; 13 to 15 days): 85; Morningglory plant response rating (morningglory; [11]): 98; Pigweed plant response rating (pigweed [5]; [9]): 100; Pigweed plant response rating (pigweed [5]; [10]): 100; Plant response rating, Pigweed (pigweed [5]; 13 to 15 days): 100; Pigweed plant response rating (pigweed [5]; [11]): 100
